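Step 1: Grow cells in 96-well plates. Step 2: Expose to compound for 48 hours at 5 concentrations. Step 3: Interpolate endpoints linearly; if unreached, use highest concentration. TGI: total growth inhibition.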
Legend:
Assay in all cases: NCI-60 cell line screen, 48 h
[1] = system: CCRF-CEM leukemia
[2] = system: EKVX NSCLC
[3] = system: HCT-15 colon
[4] = system: IGROV1 ovarian
[5] = system: MOLT-4 leukemia
[6] = system: OVCAR-3 ovarian
[7] = system: OVCAR-4 ovarian
[8] = system: PC-3 prostate
[9] = system: SR leukemia
[10] = system: HOP-62 NSCLC

Row | Structure (SMILES) | TGI [1] | TGI [2] | TGI [3] | TGI [4] | TGI [5] | TGI [6] | TGI [7] | TGI [8] | TGI [9] | TGI [10]
1 | O=[N+]([O-])c1ccc2c(c1)n1c(N3CCCC3)[n+]3ccccc3c1c1c3cccc[n+]3c(N3CCCC3)n21 | 79.9 µM | > 100 µM | > 100 µM | > 100 µM | > 100 µM | > 100 µM | > 100 µM | > 100 µM | > 100 µM | 
2 | CCOC(=O)CCC(NC(=O)OCc1ccccc1)C(=O)NC(CCC(=O)OCC)C(=O)NC(CCC(=O)OCC)C(=O)NNC(=O)OC(C)(C)C (stereo unspecified) | > 100 µM | > 100 µM | > 100 µM | > 100 µM | > 100 µM |  |  | > 100 µM | > 100 µM | > 100 µM
3 | CC(C#N)N(CCc1ccccc1)C(=O)c1ccccc1 (stereo unspecified) | > 100 µM | > 100 µM | > 100 µM | > 100 µM | > 100 µM | > 100 µM | > 100 µM | > 100 µM | > 100 µM | > 100 µM
4 | CC(C)(CN1CCCCC1)C(/C=C/c1ccccc1)=N\NC(=O)N/N=C(/C=C/c1ccccc1)C(C)(C)CN1CCCCC1 | 3.37 µM | 20.7 µM | 2.72 µM | 6.07 µM | 4.02 µM | 6.82 µM | 14.1 µM | 7.7 µM | 2.08 µM | 3.71 µM
5 | COC(=O)/C=C1\C(=O)C=C2[C@@H]3C[C@H]4C[C@H](CC[C@@]4(C)N21)C3(C)NC(C)=O (stereo partly specified) | 34.7 µM | 30.6 µM | > 52.7 µM | 40.7 µM | 34.3 µM | 29 µM | 44 µM | 31.4 µM | 99.7 µM | 60.7 µM
6 | CC1=NN2C(=N)/C(=C/c3ccccc3)C(=O)N=C2S1 | > 100 µM | > 100 µM | > 100 µM | > 100 µM | > 100 µM | > 100 µM | > 100 µM | > 100 µM | > 100 µM | > 100 µM
7 | O=NN1CCCS1(=O)=O | > 100 µM | > 100 µM | > 100 µM | > 100 µM | > 100 µM | > 100 µM | > 100 µM | > 100 µM | > 100 µM | > 100 µM
8 | COc1ccc(C2SCC(=O)N2NC(=O)C(C)Oc2ccc(Cl)cc2Cl)cc1 (stereo unspecified) |  | > 100 µM | > 100 µM | > 100 µM | 94.6 µM | > 100 µM | 52.6 µM | 75.6 µM | 17.3 µM | 48.2 µM
9 | Clc1nc2c(C#Cc3ccccc3)ncnc2n1C1CCCCO1 (stereo unspecified) | > 100 µM | 12.4 µM | 31 µM | 29.2 µM | 51.2 µM | 30.4 µM | 35.9 µM | 43.2 µM | 24.1 µM | > 100 µM
10 | O=c1nc2ccc3sc4ccccc4c(=O)c3n2c(=O)[nH]1 | > 100 µM | > 100 µM | > 100 µM | > 100 µM | > 100 µM | > 100 µM | > 100 µM | > 100 µM | > 100 µM | > 100 µM
11 | COc1cc2oc(=O)cc(C)c2cc1OC | > 100 µM | > 100 µM | > 100 µM | > 100 µM | > 100 µM | > 100 µM | > 100 µM | > 100 µM | > 100 µM | > 100 µM
